{"source": "patent US20230148450A9", "about": "“BICYCLIC HETEROARYL COMPOUNDS AND USES THEREOF” (Revolution Medicines, Inc., priority 2019, published 2023)", "note": "pIC50: −log10 of the molar value."}
{"biological_target": "T1, SOS1-mediated exchange of KRAS-4B:GDP to KRAS-4B:GTP (Homo sapiens, UniProt Q07889)", "T1 construct": "SOS1 (Cytoskeleton Inc., Cat. CS-GE02); purchased Cytoskeleton Inc. CS-GE02 (SOS1); CSRS03 (KRAS4-B)", "T1 sequence (Q07889 564-1049 limits assumed)": "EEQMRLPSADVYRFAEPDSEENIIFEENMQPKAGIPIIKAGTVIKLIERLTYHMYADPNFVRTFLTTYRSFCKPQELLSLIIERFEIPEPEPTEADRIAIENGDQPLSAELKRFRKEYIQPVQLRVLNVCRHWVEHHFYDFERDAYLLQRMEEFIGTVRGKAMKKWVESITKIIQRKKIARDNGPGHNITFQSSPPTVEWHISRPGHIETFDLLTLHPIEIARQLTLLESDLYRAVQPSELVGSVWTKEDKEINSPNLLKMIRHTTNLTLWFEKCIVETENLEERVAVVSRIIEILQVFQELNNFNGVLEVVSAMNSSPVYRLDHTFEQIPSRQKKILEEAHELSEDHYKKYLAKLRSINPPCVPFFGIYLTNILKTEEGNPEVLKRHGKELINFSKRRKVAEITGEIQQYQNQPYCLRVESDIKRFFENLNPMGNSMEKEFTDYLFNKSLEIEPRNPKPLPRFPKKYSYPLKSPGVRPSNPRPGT", "assay": "Bodipy-FL-GTP Association Assay", "format": "biochemical", "settings": "SOS1 GEF activity on KRAS-4B, 22° C.", "protocol": "A low IC50 value for a given compound is indicative of high potency of said compound in inhibiting the guanine nucleotide exchange factor (GEF) activity of SOS1 on KRAS-4B in this assay setting. Reagents: BODIPY FL GTP (ThermoFisher Scientific, Cat. G12411); KRAS4-B (Cytoskeleton Inc., Cat. CSRS03); SOS1 (Cytoskeleton Inc., Cat. CS-GE02); 2× Assay Buffer: 40 mM Tris-HCl, pH 7.5; 100 mM NaCl; 20 mM MgCl2; 0.1 mg/mL BSA; 0.02% NP-40 Assay Procedure: Test compounds were dissolved in DMSO to create 20 mM master stocks. The stocks were diluted in a 3× dilution series in 100% DMSO to achieve 100× compound stocks. A 1 μl spot of each test compound stock was delivered to two adjacent wells of a 96-well assay plate prior to running the assay. Reaction Mix preparation: The following were mixed in order at room temperature to obtain the “Reaction Mix” (5.75 mL 2× Exchange Buffer; 3.22 mL MilliQ ddH2O; 3 μL 5 mM BODIPY FL GTP; 230 μL 50 μM KRAS-4B; 9.203 mL Total volume. Reaction initiation: 80 μL of Reaction Mix was pipetted into each well of a half-area black 96-well plate (Corning, Cat. 3686) containing either a 1 μL spot of DMSO or a 1 μL spot test compound at the concentrations listed above. 20 μL of 1 μM SOS1 was then added to each well to initiate the reaction. For the no GEF control wells this was replaced with 1× exchange buffer. Kinetic measurement: The reaction was monitored in a SpectraMax M2 Microplate Reader (Molecular Devices) under the following protocol: 5 second rapid circular mixing before first read; 61 readings, 30 seconds apart; Assay temperature: 22° C.; Excitation wavelength: 485 nm; Emission wavelength: 513 nm. Data Analysis: The V max values for the SOS1-mediated BODIPY FL GTP exchange curves in the presence of test compounds were normalized to the most dilute test sample columns or DMSO only control wells to give the % Activity for each concentration of test compound. Plots of % Activity vs. the Log10 of the compound concentration were fit by non-linear regression to a 4-parameter logistic model."}
{"smiles": "C[C@@H](Nc1nccn2cc(C(=O)N3CCN(C)CC3)nc12)c1cc(N)cc(C(F)(F)F)c1", "note": "[Example 10, N-[(1R)-1-[3-amino-5-(trifluoromethyl)phenyl]ethyl]-2-(4-methylpiperazine-1-carbonyl)imidazo[1,2-a]pyrazin-8-amine]", "pIC50": "5.30 to 6.00"}
{"smiles": "C[C@@H](Nc1ncnn2cc(C3CCNCC3)cc12)c1cc(N)cc(C(F)(F)F)c1", "note": "[Example 11, N-[(1R)-1-[3-amino-5-(trifluoromethyl)phenyl]ethyl]-6-(piperidin-4-yl)pyrrolo[2,1-f][1,2,4]triazin-4-amine]", "pIC50": "> 6.00"}
{"smiles": "C[C@@H](Nc1ncnn2cc(C3=CCNCC3)cc12)c1cc(N)cc(C(F)(F)F)c1", "note": "[Example 12, N-[(1R)-1-[3-amino-5-(trifluoromethyl)phenyl]ethyl]-6-(1,2,3,6-tetrahydropyridin-4-yl)pyrrolo[2,1-f][1,2,4]triazin-4-amine]", "pIC50": "> 6.00"}
{"smiles": "CC(=O)N1CC=C(c2cc3c(N[C@H](C)c4cc(N)cc(C(F)(F)F)c4)ncnn3c2)CC1", "note": "[Example 13, 1-[4-[4-[[(1R)-1-[3-amino-5-(trifluoromethyl)phenyl]ethyl]amino]pyrrolo[2,1-f][1,2,4]triazin-6-yl]-3,6-dihydro-2H-pyridin-1-yl]ethanone]", "pIC50": "5.30 to 6.00"}
{"smiles": "C[C@@H](Nc1ncnn2cc(C3=CCNCC3)cc12)c1cccc(C(F)(F)F)c1", "note": "[Example 14]", "pIC50": "5.30 to 6.00"}
{"smiles": "CC(=O)N1CC=C(c2cc3c(N[C@H](C)c4cccc(C(F)(F)F)c4)ncnn3c2)CC1", "note": "[Example 15]", "pIC50": "< 5.30"}
{"smiles": "C[C@@H](Nc1ncnn2cc(C(=O)N3CCOCC3)cc12)c1cc(N)cc(C(F)(F)F)c1", "note": "[Example 16]", "pIC50": "< 5.30"}
{"smiles": "C[C@@H](Nc1nccn2cc(C(=O)NC[C@H]3CCOC3)nc12)c1cccc(C(F)(F)F)c1", "note": "[Example 17]", "pIC50": "< 5.30"}
{"smiles": "C[C@@H](Nc1nccn2cc(C(=O)N3CCN(C)CC3)nc12)c1cccc(C(F)(F)F)c1", "note": "[Example 18]", "pIC50": "< 5.30"}
{"smiles": "Cc1nc(N[C@H](C)c2cccc(C(F)(F)F)c2)c2cc(C3=CCNCC3)cn2n1", "note": "[Example 19]", "pIC50": "< 5.30"}
{"smiles": "C[C@@H](Nc1nc(C2CC2)nn2cc(C3=CCNCC3)cc12)c1cccc(C(F)(F)F)c1", "note": "[Example 20]", "pIC50": "< 5.30"}
{"smiles": "COc1nc(N[C@H](C)c2cccc(C(F)(F)F)c2)c2cc(C3=CCNCC3)cn2n1", "note": "[Example 21]", "pIC50": "5.30 to 6.00"}
{"smiles": "COCC(=O)N1CC=C(c2cnc3c(N[C@H](C)c4cccc(C(F)(F)F)c4)nccn23)CC1", "note": "[Example 22]", "pIC50": "< 5.30"}
{"smiles": "C[C@@H](NC1=NC=NC2SC(C3(O)CCC(C(=O)N(C)C)CC3)=CC12)c1cc(N)cc(C(F)(F)F)c1", "note": "(stereo partly drawn) [Example 23]", "pIC50": "> 6.00"}
{"smiles": "Cc1cn2nc(C(=O)N3CCOCC3)cc2c(N[C@H](C)c2cccc(C(F)(F)F)c2)n1", "note": "[Example 24]", "pIC50": "< 5.30"}
{"smiles": "Cc1cn2nc(C(=O)N3CCN(C)CC3)cc2c(N[C@H](C)c2cccc(C(F)(F)F)c2)n1", "note": "[Example 25]", "pIC50": "< 5.30"}
{"smiles": "Cc1nc(N[C@H](C)c2cc(N)cc(C(F)(F)F)c2)c2cc(C3=CCNCC3)sc2n1", "note": "[Example 26]", "pIC50": "5.30 to 6.00"}
{"smiles": "CC(=O)N1CCN(c2cc3c(N[C@H](C)c4cccc(C(F)(F)F)c4)ncnn3c2)CC1", "note": "[Example 27]", "pIC50": "> 6.00"}
